Results published in ChEMBL document CHEMBL1148803, “Polyfluorinated bis-styrylbenzene beta-amyloid plaque binding ligands” (J Med Chem, 2007).
pKd: −log10 of the molar value.

Assay: Binding affinity to beta amyloid protein 1-40 by fluorescence titration
Parameters: species or system Homo sapiens

SMILES	pKd
FC(F)(F)Oc1cccc(/C=C/c2ccc(/C=C/c3cccc(OC(F)(F)F)c3)cc2)c1	7.80
Oc1ccc(/C=C/c2ccc(/C=C/c3ccc(O)cc3)cc2)cc1	7.96
FC(F)(F)c1cccc(/C=C/c2ccc(/C=C/c3cccc(C(F)(F)F)c3)cc2)c1	7.59
O=C(O)c1cc(/C=C/c2ccc(/C=C/c3ccc(O)c(C(=O)O)c3)c(F)c2)ccc1O	5.47
Cc1ccc2c(c1)sc(-c1ccc(N(C)C)cc1)[n+]2C [THIOFLAVIN T]	6.25

These reach a higher pKd. Values come first.

pKd	SMILES
8.02	FC(F)(F)c1ccc(/C=C/c2ccc(/C=C/c3ccc(C(F)(F)F)cc3)cc2)cc1
8.00	FC(F)(F)Oc1ccc(/C=C/c2ccc(/C=C/c3ccc(OC(F)(F)F)cc3)cc2)cc1
8.03	O=C(O)c1cc(/C=C/c2c(F)c(F)c(/C=C/c3ccc(O)c(C(=O)O)c3)c(F)c2F)ccc1O
10.52	Oc1ccc(/C=C/c2c(F)c(F)c(/C=C/c3ccc(O)cc3)c(F)c2F)cc1
